The record followed here is US20250154152A1, “INHIBITORS OF NAEGLERIA FOWLERI” (Wisconsin Alumni Research Foundation, priority 2023, published 2025).

Read-outs that look alike come from different tables or passages of the source. Bounds are passed on as bounds.

The test relates to N. fowleri strain Nf69 (ATCC 30215) trophozoites. Kind of test: Determination of EC50 values against Naegleria fowleri (growth inhibition, CellTiter Glo, 48 h). The following applies: read-out: EC50 uM against N. fowleri. The format is cell-based. An outline of the steps: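 Axenic Nf69 trophozoites in Nelson's complete medium with 10% FBS exposed to compound, initially 20–0.375 μM, for 48 h at 37 °C, 5% CO2. Viability read by CellTiter-Glo luminescence; % growth inhibition versus controls, triplicate averages fitted for EC50, with lower ranges used for very potent compounds.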

The mark [1] stands for this setting: ATCC30215, N. fowleri Nf69 trophozoites, 48 h culture, 37° C., CellTiter Glo luminescence.

Consider `Cn1c([C@@H]2CCCN(CC3COC3)C2)nc2ccc(C(F)(F)F)cc2c1=O` [Compound R-14t, (R)-3-methyl-2-(1-(oxetan-3-ylmethyl)piperidin-3-yl)-6-(trifluoromethyl)quinazolin-4(3H)-one], for which the EC50 – broadly, the midpoint of the concentration-response curve – under setting [1] was > 10 µM.

Turning to `Cn1c([C@H]2CCCN(CC3CCOCC3)C2)nc2cc(Cl)c(Cl)cc2c1=O` [Compound S-14c, (S)-6,7-dichloro-3-methyl-2-(1-((tetrahydro-2H-pyran-4-yl)methyl)piperidin-3-yl)quinazolin-4(3H)-one], the EC50 under setting [1] is > 10 µM.

Take `O=c1c2cc(Cl)c(Cl)cc2nc2n1CC[C@@H]1[C@@H]2CCCN1CCN1CCOCC1` (racemic) [trans-7y, (±)-(4aR,13bS)-10,11-dichloro-4-(2-morpholinoethyl)-1,2,3,4,4a,5,6,13b-octahydro-8H-[1,6]naphthyridino[5,6-b]quinazolin-8-one]: the EC50 under setting [1] was in the range of 0.0001 to 0.1 µM.

In the case of `O=c1c2cc(Cl)c(Cl)cc2nc2n1CC[C@@H]1[C@@H]2CCCN1Cc1ccc(Cl)cc1Cl` (racemic) [Compound 7v, (±)-(4aR,13bS)-10,11-dichloro-4-(2,4-dichlorobenzyl)-1,2,3,4,4a,5,6,13b-octahydro-8H-[1,6]naphthyridino[5,6-b]quinazolin-8-one], the EC50 under setting [1] was > 10 µM.

For the compound `CN1CCC[C@@H]2c3nc4cc(-c5ccccc5)c(Cl)cc4c(=O)n3CC[C@H]21` (racemic) [trans-9b, (±)-(4aR,13bS)-10-chloro-4-methyl-11-phenyl-1,2,3,4,4a,5,6,13b-octahydro-8H-[1,6]naphthyridino[5,6-b]quinazolin-8-one], the EC50 under setting [1] was 1 to 10 µM.

In the case of `Cn1c([C@@H]2CCCN(Cc3ccccn3)C2)nc2cc(Cl)c(Cl)cc2c1=O` [Compound R-14w, (R)-6,7-dichloro-3-methyl-2-(1-(pyridin-2-ylmethyl)piperidin-3-yl)quinazolin-4(3H)-one], the EC50 under setting [1] is > 10 µM.

On to `CN1CCC[C@H]2c3nc4ccc(Br)cc4c(=O)n3CC[C@H]21` (racemic) [cis-5e, (±)-(4aR,13bR)-10-bromo-4-methyl-1,2,3,4,4a,5,6,13b-octahydro-8H-[1,6]naphthyridino[5,6-b]quinazolin-8-one], for which, under setting [1], the EC50 was in the range of 0.1 to 1 µM.

For the compound `CN1CCC[C@H]2c3nc4ccc(Cl)cc4c(=O)n3CC[C@@H]21` [trans-10b-ent-2, (4aS,13bR)-10-chloro-4-methyl-1,2,3,4,4a,5,6,13b-octahydro-8H-[1,6]naphthyridino[5,6-b]quinazolin-8-one], the EC50 (ATCC30215, 48 h) is 1 to 10 µM.

Consider `CN1CCC[C@@H]2c3nc4cc(Cl)ccc4c(=O)n3CC[C@H]21` (racemic) [trans-5k, (±)-(4aR,13bS)-11-chloro-4-methyl-1,2,3,4,4a,5,6,13b-octahydro-8H-[1,6]naphthyridino[5,6-b]quinazolin-8-one], for which, under setting [1], the EC50 is 1 to 10 µM.

As for `CN1CCC[C@H]2c3nc4cccc(Cl)c4c(=O)n3CC[C@H]21` (racemic) [cis-5c, (±)-(4aR,13bR)-9-chloro-4-methyl-1,2,3,4,4a,5,6,13b-octahydro-8H-[1,6]naphthyridino[5,6-b]quinazolin-8-one], the EC50 under setting [1] was > 10 µM.

As to `CN1CCC[C@H]2c3nc4cc(Br)ccc4c(=O)n3CC[C@H]21` (racemic) [cis-5l, (±)-(4aR,13bR)-11-bromo-4-methyl-1,2,3,4,4a,5,6,13b-octahydro-8H-[1,6]naphthyridino[5,6-b]quinazolin-8-one], the EC50 under setting [1] is 1 to 10 µM.

On to `Cc1ccc2nc3n(c(=O)c2c1)CC[C@@H]1[C@H]3CCCN1C` (racemic) [cis-5h, (±)-(4aR,13bR)-4,10-dimethyl-1,2,3,4,4a,5,6,13b-octahydro-8H-[1,6]naphthyridino[5,6-b]quinazolin-8-one], for which the EC50 under setting [1] lay within 1 to 10 µM.

Regarding `Cn1c([C@@H]2CCCN(CC3COC3)C2)nc2cnc(Cl)cc2c1=O` [Compound R-14n, (R)-6-chloro-3-methyl-2-(1-(oxetan-3-ylmethyl)piperidin-3-yl)pyrido[3,4-d]pyrimidin-4(3H)-one], the EC50 under setting [1] is > 10 µM.

As for `CN1CCC[C@H]2c3nc4ccc(C(F)(F)F)cc4c(=O)n3CC[C@@H]21` [trans-10d-ent-2, (4aS,13bR)-4-methyl-10-(trifluoromethyl)-1,2,3,4,4a,5,6,13b-octahydro-8H-[1,6]naphthyridino[5,6-b]quinazolin-8-one], the EC50 (ATCC30215, 48 h) was in the range of 1 to 10 µM.

On to `O=c1c2cc(Cl)c(Cl)cc2nc2n1CC[C@@H]1[C@@H]2CCCN1Cc1cccnc1` (racemic) [trans-7bb, (±)-(4aR,13bS)-10,11-dichloro-4-(pyridin-3-ylmethyl)-1,2,3,4,4a,5,6,13b-octahydro-8H-[1,6]naphthyridino[5,6-b]quinazolin-8-one], for which the EC50 under setting [1] is 0.0001 to 0.1 µM.

On to `CN1CCC[C@@H]2c3nc4ccc(Cl)cc4c(=O)n3CC[C@H]21` [trans-10a-ent 1, (4aR,13bS)-10-chloro-4-methyl-1,2,3,4,4a,5,6,13b-octahydro-8H-[1,6]naphthyridino[5,6-b]quinazolin-8-one], for which the EC50 under setting [1] was in the range of 0.1 to 1 µM.

Turning to `Cc1cccc2nc3n(c(=O)c12)CC[C@@H]1[C@H]3CCCN1C` (racemic) [cis-5b, (±)-(4aR,13bR)-4,9-dimethyl-1,2,3,4,4a,5,6,13b-octahydro-8H-[1,6]naphthyridino[5,6-b]quinazolin-8-one], the EC50 under setting [1] is > 10 µM.

On to `CN1CCC[C@H]2c3nc4cc(F)ccc4c(=O)n3CC[C@H]21` (racemic) [cis-5m, (±)-(4aR,13bR)-11-fluoro-4-methyl-1,2,3,4,4a,5,6,13b-octahydro-8H-[1,6]naphthyridino[5,6-b]quinazolin-8-one], for which the EC50 under setting [1] was > 10 µM.

As to `COc1ccc2nc3n(c(=O)c2c1)CC[C@@H]1[C@@H]3CCCN1C` (racemic) [trans-5g, (±)-(4aR,13bS)-10-methoxy-4-methyl-1,2,3,4,4a,5,6,13b-octahydro-8H-[1,6]naphthyridino[5,6-b]quinazolin-8-one], the EC50 under setting [1] was in the range of 1 to 10 µM.

Turning to `Cn1c([C@@H]2CCCN(CCN3CCOCC3)C2)nc2cc(Cl)c(Cl)cc2c1=O` [Compound R-14bb, (R)-6,7-dichloro-3-methyl-2-(1-(2-morpholinoethyl)piperidin-3-yl)quinazolin-4(3H)-one], the EC50 under setting [1] lay within 1 to 10 µM.

On to `CN(C)CC(=O)N1CCC[C@@H]2c3nc4cc(Cl)c(Cl)cc4c(=O)n3CC[C@H]21` (racemic) [trans-7g, (±)-(4aR,13bS)-10,11-dichloro-4-(dimethylglycyl)-1,2,3,4,4a,5,6,13b-octahydro-8H-[1,6]naphthyridino[5,6-b]quinazolin-8-one], for which the EC50 under setting [1] lay in the range of 0.1 to 1 µM.

With `CC(C)CN1CCC[C@@H]2c3nc4cc(Cl)c(Cl)cc4c(=O)n3CC[C@H]21` (racemic) [trans-7l, (±)-(4aR,13bS)-10,11-dichloro-4-isobutyl-1,2,3,4,4a,5,6,13b-octahydro-8H-[1,6]naphthyridino[5,6-b]quinazolin-8-one], the EC50 under setting [1] lay in the range of 0.0001 to 0.1 µM.

Regarding `O=c1c2ccccc2nc2n1CC[C@@H]1[C@@H]2CCCN1Cc1ccccc1` (racemic) [trans-5aa, (±)-(4aR,13bS)-4-benzyl-1,2,3,4,4a,5,6,13b-octahydro-8H-[1,6]naphthyridino[5,6-b]quinazolin-8-one], the EC50 under setting [1] is > 10 µM.

For `Cn1c([C@@H]2CCN(CC3COC3)C2)nc2cc(Cl)c(Cl)cc2c1=O` [Compound R-14j, (R)-6,7-dichloro-3-methyl-2-(1-(oxetan-3-ylmethyl)pyrrolidin-3-yl)quinazolin-4(3H)-one], under setting [1], the EC50 lay in the range of 1 to 10 µM.

For the compound `CN1CCC[C@@H]2c3nc4ccc(C(F)(F)F)cc4c(=O)n3CC[C@H]21` (racemic) [trans-5j, (±)-(4aR,13bS)-4-methyl-10-(trifluoromethyl)-1,2,3,4,4a,5,6,13b-octahydro-8H-[1,6]naphthyridino[5,6-b]quinazolin-8-one], the EC50 under setting [1] was 1 to 10 µM.

For `CN1CCO[C@@H]2c3nc4ccccc4c(=O)n3CC[C@H]21` (racemic) [trans-5v, (±)-(4aR,13bS)-4-methyl-3,4,4a,5,6,13b-hexahydro-[1,4]oxazino[2′,3′:3,4]pyrido[2,1-b]quinazolin-8(2H)-one], under setting [1], the EC50 was > 10 µM.

As to `CN1CCC[C@@H]2c3nc4cc(F)ccc4c(=O)n3CC[C@H]21` (racemic) [trans-5m, (±)-(4aR,13bS)-11-fluoro-4-methyl-1,2,3,4,4a,5,6,13b-octahydro-8H-[1,6]naphthyridino[5,6-b]quinazolin-8-one], under setting [1], the EC50 is > 10 µM.

For the compound `COc1cc2nc3n(c(=O)c2cc1OC)CC[C@@H]1[C@H]3CCCN1C` (racemic) [cis-5r, (±)-(4aR,13bR)-10,11-dimethoxy-4-methyl-1,2,3,4,4a,5,6,13b-octahydro-8H-[1,6]naphthyridino[5,6-b]quinazolin-8-one], the EC50 under setting [1] is > 10 µM.

As to `CN1CCC[C@H]2c3nc4cc(Cl)c(C(F)(F)F)cc4c(=O)n3CC[C@H]21` (racemic) [cis-5s, (±)-(4aR,13bR)-11-chloro-4-methyl-10-(trifluoromethyl)-1,2,3,4,4a,5,6,13b-octahydro-8H-[1,6]naphthyridino[5,6-b]quinazolin-8-one], under setting [1], the EC50 lay within 0.1 to 1 µM.

Turning to `COc1cc2nc3n(c(=O)c2cc1Cl)CC[C@H]1[C@H]3CCCN1CC1COC1` (single isomer, unassigned) [trans-10j-ent-2], the EC50 under setting [1] lay in the range of 0.0001 to 0.1 µM.

For the compound `CC(C)(C)c1ccc(CN2CCC[C@@H]3c4nc5cc(Cl)c(Cl)cc5c(=O)n4CC[C@H]32)cc1` (racemic) [trans-7s, (±)-(4aR,13bS)-4-(4-(tert-butyl)benzyl)-10,11-dichloro-1,2,3,4,4a,5,6,13b-octahydro-8H-[1,6]naphthyridino[5,6-b]quinazolin-8-one], under setting [1], the EC50 was > 10 µM.

For the compound `Cn1c([C@H]2CCCN(CC3COC3)C2)nc2cc(Cl)c(Cl)cc2c1=O` [Compound S-14e, (S)-6,7-dichloro-3-methyl-2-(1-(oxetan-3-ylmethyl)piperidin-3-yl)quinazolin-4(3H)-one], the EC50 under setting [1] was > 10 µM.
